{"source": "ChEMBL document CHEMBL3045923", "about": "“Using a selectivity index to evaluate logarithmic spraying in grass seed crops” (Pest Manag Sci, 2009)", "key": {"[1]": {"experiment": "Selectivity index, ratio of ED10 for Festuca rubra L. to ED90 for Poa pratensis subsp. Pratensis"}, "Festuca rubra [2]": {"system": "Festuca rubra", "experiment": "Toxicity against Festuca rubra applied using logarithmic sprayer", "format": "organism-based", "details": "in vivo"}, "[3]": {"system": "Poa pratensis subsp. pratensis", "experiment": "Herbicidal activity against Poa pratensis subsp. pratensis applied using logarithmic sprayer", "format": "functional"}, "[4]": {"experiment": "Ratio of ED50 for Festuca arundinacea to ED50 for Poa pratensis subsp. Pratensis"}, "[5]": {"experiment": "Ratio of ED50 for Festuca pratensis to ED50 for Poa pratensis subsp. Pratensis"}, "[6]": {"experiment": "Ratio of ED50 for Festuca rubra L. to ED50 for Poa pratensis subsp. Pratensis"}, "Festuca rubra [7]": {"system": "Festuca rubra", "experiment": "Toxicity against Festuca rubra applied applied during spring season using logarithmic sprayer", "format": "organism-based", "details": "in vivo"}, "[8]": {"system": "Poa pratensis subsp. pratensis", "experiment": "Herbicidal activity against Poa pratensis subsp. pratensis applied during spring season using logarithmic sprayer", "format": "functional"}, "[9]": {"experiment": "Ratio of ED50 for Lolium perenne to ED50 for Poa pratensis subsp. Pratensis"}}, "data": [{"smiles": "C#CCOC(=O)[C@@H](C)Oc1ccc(Oc2ncc(Cl)cc2F)cc1", "note": "[CLODINAFOP PROPARGYL]", "values": [{"measurement": "Selectivity Index", "setting": "[1]", "result": "> 1"}, {"measurement": "ED50", "setting": "Festuca rubra [2]", "result": 0.923, "unit": "kg/ha"}, {"measurement": "ED50", "setting": "[3]", "result": 0.192, "unit": "kg/ha"}]}, {"smiles": "CCOC(=O)[C@@H](C)Oc1ccc(Oc2nc3ccc(Cl)cc3o2)cc1", "note": "[FENOXAPROP-P-ETHYL]", "values": [{"measurement": "Ratio ED50", "setting": "[4]", "result": "> 2"}, {"measurement": "Ratio ED50", "setting": "[5]", "result": "> 2"}, {"measurement": "ED50", "setting": "Festuca rubra [2]", "result": 1.137, "unit": "kg/ha"}, {"measurement": "ED50", "setting": "[3]", "result": 0.408, "unit": "kg/ha"}, {"measurement": "ED90", "setting": "[3]", "result": 0.68, "unit": "kg/ha"}, {"measurement": "Ratio ED50", "setting": "[6]", "result": "> 2"}]}, {"smiles": "COc1cc(OC)nc(NC(=O)NS(=O)(=O)c2nc(C(F)(F)F)ccc2C(=O)O)n1", "note": "[FLUPYRSULFURON]", "values": [{"measurement": "ED50", "setting": "Festuca rubra [7]", "result": 0.04, "unit": "kg/ha"}, {"measurement": "ED50", "setting": "Festuca rubra [2]", "result": 0.024, "unit": "kg/ha"}, {"measurement": "ED50", "setting": "[3]", "result": 0.017, "unit": "kg/ha"}, {"measurement": "ED50", "setting": "[8]", "result": 0.019, "unit": "kg/ha"}, {"measurement": "Ratio ED50", "setting": "[6]", "result": "> 2"}]}, {"smiles": "O=C(O)CNCP(=O)(O)O", "note": "[GLYPHOSATE]", "values": [{"measurement": "ED50", "setting": "Festuca rubra [2]", "result": 0.263, "unit": "L/ha"}]}, {"smiles": "COc1nc(C)nc(NC(=O)NS(=O)(=O)c2cc(I)ccc2C(=O)O)n1", "note": "[IODOSULFURON]", "values": [{"measurement": "ED50", "setting": "Festuca rubra [2]", "result": 0.367, "unit": "kg/ha"}, {"measurement": "ED50", "setting": "[3]", "result": 0.184, "unit": "kg/ha"}]}, {"smiles": "CCC(CC)Nc1c([N+](=O)[O-])cc(C)c(C)c1[N+](=O)[O-]", "note": "[PENDIMETHALIN]", "values": [{"measurement": "ED50", "setting": "Festuca rubra [2]", "result": 3.531, "unit": "L/ha"}, {"measurement": "ED50", "setting": "[3]", "result": 1.761, "unit": "L/ha"}]}, {"smiles": "CCCN(CCC)C(=O)SCc1ccccc1", "note": "[PROSULFOCARB]", "values": [{"measurement": "ED50", "setting": "[3]", "result": 2.337, "unit": "kg/ha"}]}, {"smiles": "CCS(=O)(=O)c1nc2ccccn2c1S(=O)(=O)NC(=O)Nc1nc(OC)cc(OC)n1", "note": "[SULFOSULFURON]", "values": [{"measurement": "Ratio ED50", "setting": "[9]", "result": "> 1"}, {"measurement": "ED50", "setting": "Festuca rubra [2]", "result": 0.007, "unit": "kg/ha"}, {"measurement": "ED50", "setting": "[3]", "result": 0.014, "unit": "kg/ha"}]}]}
